In PMC6333442, “Conserved allosteric pathways for activation of TRPV3 revealed through engineering vanilloid-sensitivity” (eLife, 2019):
Residue numbers refer to the chain shown, from its start. “And” between values parts separate entries of the source, which are not always exact repeats. Identical values can stand only once.

Legend:
[1] = system: TRPV3-6M + I595L, K611D, L635F, L639M or Y650F; assay: Two-electrode voltage clamp, TRPV3-6M with individual pore mutations (weak RTx responders); format: cell-based, mouse; conditions: RTx 100 nM, room temperature; smaller than responses to 2-APB
Method: (§1) All channel constructs were expressed in Xenopus laevis oocytes and studied using the two-electrode voltage clamp technique (TEVC) following 1–4 days of incubation after cRNA injection. The animal care and experimental procedures were performed in accordance with the Guide for the Care and Use of Laboratory Animals and were approved by the Animal Care and Use Committee of the National Institute of Neurological Disorders and Stroke (Animal protocol number 1253–17). Oocytes were removed surgically and incubated with agitation for 1 hr in a solution containing (in mM) 82.5 NaCl, 2.5 KCl, 1 MgCl2, 5 HEPES, pH 7.6 (with NaOH), and collagenase (2 mg/ml; Worthington Biochemical, Lakewood, NJ). Defolliculated oocytes were injected with cRNA for each of the constructs and incubated at 17°C in a solution containing (in mM) 96 NaCl, 2 KCl, 1 MgCl2, 1.8 CaCl2, 5 HEPES, pH 7.6 (with NaOH), and gentamicin (50 μg/ml, GIBCO-BRL, Gaithersburg, MD). Oocyte membrane voltage was controlled using an OC-725C oocyte clamp (Warner Instruments, Hamden, CT). Data were filtered at 1–3 kHz and digitized at 20 kHz using pClamp software (Molecular Devices, Sunnyvale, CA) and a Digidata 1440A digitizer (Axon Instruments). Microelectrode resistances were 0.1–1 MΩ when filled with 3 M KCl. For recording TRP channel currents, the external recording solution contained (in mM) 100 KCl, 10 HEPES, pH 7.6 (with KOH). […]

TRPV3-6M + V587L = molecular target: T1, TRPV3-6M + V587L (Mus musculus, UniProt Q8K424, A560T/F522S/H523E/L557M/Q580E/V587L/W521Y); assay: Two-electrode voltage clamp, TRPV3-6M + V587L, RTx concentrations; format: cell-based
T1 construct: expressed in transfected cells; host or cells: Xenopus laevis oocytes
T1 sequence (Q8K424 1-791 W521Y/F522S/H523E/L557M/A560T/Q580E/V587L): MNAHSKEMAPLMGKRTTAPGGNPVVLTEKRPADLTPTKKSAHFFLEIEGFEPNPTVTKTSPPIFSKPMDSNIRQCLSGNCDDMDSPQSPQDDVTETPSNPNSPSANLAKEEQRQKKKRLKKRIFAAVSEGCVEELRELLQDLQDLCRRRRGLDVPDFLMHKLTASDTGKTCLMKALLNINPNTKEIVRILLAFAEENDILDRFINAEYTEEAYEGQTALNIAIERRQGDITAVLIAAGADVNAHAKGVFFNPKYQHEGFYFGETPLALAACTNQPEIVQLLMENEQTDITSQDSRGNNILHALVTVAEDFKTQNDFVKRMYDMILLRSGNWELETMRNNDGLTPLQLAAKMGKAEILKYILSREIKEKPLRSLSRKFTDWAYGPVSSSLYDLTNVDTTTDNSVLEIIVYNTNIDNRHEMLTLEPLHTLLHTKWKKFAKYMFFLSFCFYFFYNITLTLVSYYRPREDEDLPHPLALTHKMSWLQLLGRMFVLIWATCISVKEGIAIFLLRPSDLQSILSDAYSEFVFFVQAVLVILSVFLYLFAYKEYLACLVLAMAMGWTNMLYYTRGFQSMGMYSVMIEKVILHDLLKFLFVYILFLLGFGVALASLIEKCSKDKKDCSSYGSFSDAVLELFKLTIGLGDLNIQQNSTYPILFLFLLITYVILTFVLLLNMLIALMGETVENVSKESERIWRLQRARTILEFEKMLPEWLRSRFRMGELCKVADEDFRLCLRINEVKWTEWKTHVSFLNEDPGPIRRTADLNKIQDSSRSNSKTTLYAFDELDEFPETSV
Method: as §1

TRPV1 = system: TRPV1; parameters: method as in Zhang et al., 2016; conditions: ref Zhang et al., 2016; cited from earlier work
TRPV3-4M/V2P = assay: Two-electrode voltage clamp, TRPV3-4M/V2P chimera in oocytes; format: cell-based, mouse; conditions: RTx 100 nM, 2-APB 3 mM, room temperature, ±60 mV
Method: as §1

TRPV3-5PM = molecular target: T2, TRPV3-5PM (Mus musculus, UniProt Q8K424, A606V/F625L/F656I/F666Y/V587L); format: cell-based
T2 construct: expressed in transfected cells; host or cells: Xenopus laevis oocytes
T2 sequence (Q8K424 1-791 V587L/A606V/F625L/F656I/F666Y): T1 sequence (Q8K424 1-791 W521Y/F522S/H523E/L557M/A560T/Q580E/V587L) with Y521W, S522F, E523H, M557L, T560A, E580Q, A606V, F625L, F656I, F666Y
Method: All channel constructs were expressed in Xenopus laevis oocytes and studied using the two-electrode voltage clamp technique (TEVC) following 1–4 days of incubation after cRNA injection. The animal care and experimental procedures were performed in accordance with the Guide for the Care and Use of Laboratory Animals and were approved by the Animal Care and Use Committee of the National Institute of Neurological Disorders and Stroke (Animal protocol number 1253–17). Oocytes were removed surgically and incubated with agitation for 1 hr in a solution containing (in mM) 82.5 NaCl, 2.5 KCl, 1 MgCl2, 5 HEPES, pH 7.6 (with NaOH), and collagenase (2 mg/ml; Worthington Biochemical, Lakewood, NJ). Defolliculated oocytes were injected with cRNA for each of the constructs and incubated at 17°C in a solution containing (in mM) 96 NaCl, 2 KCl, 1 MgCl2, 1.8 CaCl2, 5 HEPES, pH 7.6 (with NaOH), and gentamicin (50 μg/ml, GIBCO-BRL, Gaithersburg, MD). Oocyte membrane voltage was controlled using an OC-725C oocyte clamp (Warner Instruments, Hamden, CT). Data were filtered at 1–3 kHz and digitized at 20 kHz using pClamp software (Molecular Devices, Sunnyvale, CA) and a Digidata 1440A digitizer (Axon Instruments). Microelectrode resistances were 0.1–1 MΩ when filled with 3 M KCl. For recording TRP channel currents, the external recording solution contained (in mM) 100 KCl, 10 HEPES, pH 7.6 (with KOH). Experiments were performed at room temperature (~22°C), except as indicated otherwise. […] Current time courses were obtained by stepping membrane voltage every 2 s from a holding potential of 0 mV to either −60 or +60 mV for 100 ms, and plotting the mean steady-state current at the end of each voltage step as a function of total recording time. I-V relations were obtained similarly, but voltage was stepped every 2 s to a different value, in 10 mV increments and starting at −60 mV.

SMILES	channel activation (current response) [1]	dissociation of RTx (TRPV3-6M + V587L)	saturating concentration of RTx (TRPV1) [nM]	channel activation (current response) (TRPV3-4M/V2P)	increase in the apparent affinity for 2-APB (TRPV3-5PM)	s (slope) of Hill fit, 2-APB concentration-response (TRPV3-5PM)	EC50 (TRPV3-5PM; read-out: apparent affinity (EC50) for activation by 2-APB) [µM]
C=C(C)[C@]12C[C@@H](C)[C@@]34O[C@](Cc5ccccc5)(O[C@@H]1[C@@H]3C=C(COC(=O)Cc1ccc(O)c(OC)c1)C[C@]1(O)C(=O)C(C)=C[C@@H]41)O2 [RTx, resiniferatoxin]	detectable responses	exceedingly slow	100	–	–	–	–
NCCOB(c1ccccc1)c1ccccc1 [2-APB, 2-aminoethoxydiphenyl borate]	–	–	–	could be activated	20 fold and > 20 fold and ~ 20 fold	1.32	19 ± 2
